SMILES strings stand for the structures.

The values below come from article PMC5218480 (PLoS ONE, 2017).

The test system of this test is MV-4-11 cells. As to the kind of experiment: Gene expression microarray analysis (Affymetrix PrimeView) and GSEA. It is filed as cell-based, human. On the set-up: RFU PODN (11730768_x_at) / Fold change /veh PODN (11730768_x_at) / RFU LINC00158 (11744669_a_at) / Fold change /veh LINC00158 (11744669_a_at) / RFU DUSP10 (11751237_a_at) / Fold change /veh DUSP10 (11751237_a_at) / RFU ID3 (11757404_x_at) / Fold change /veh ID3 (11757404_x_at) / RFU PLEKHG5 (11737974_s_at) / Fold change /veh PLEKHG5 (11737974_s_at) / RFU LRRC4B (11730491_at) / Fold change /veh LRRC4B (11730491_at) / RFU GIMAP4 (11747438_a_at) / Fold change /veh GIMAP4 (11747438_a_at) / RFU KRT8 (11758183_x_at) / Fold change /veh KRT8 (11758183_x_at) / RFU CNN1 (11734310_a_at) / Fold change /veh CNN1 (11734310_a_at) / RFU VPS37D (11726825_at) / Fold change /veh VPS37D (11726825_at) / RFU C10orf10 (11716522_x_at) / Fold change /veh C10orf10 (11716522_x_at) / RFU KIR2DL2 /// KIR2DL4 /// KIR2DL5A /// KIR2DL5B /// KIR2DS1 /// KIR2DS2 /// KIR2DS3 /// KIR2DS4 /// KIR3DL3 /// KIR3DL3 /// KIR3DS1 (11738374_at) / Fold change /veh KIR2DL2 /// KIR2DL4 /// KIR2DL5A /// KIR2DL5B /// KIR2DS1 /// KIR2DS2 /// KIR2DS3 /// KIR2DS4 /// KIR3DL3 /// KIR3DL3 /// KIR3DS1 (11738374_at) / RFU C1QL1 (11718748_at) / Fold change /veh C1QL1 (11718748_at) / RFU TMPRSS4 (11747572_a_at) / Fold change /veh TMPRSS4 (11747572_a_at) / RFU HAMP (11756126_x_at) / Fold change /veh HAMP (11756126_x_at) / RFU RNFT2 (11725882_a_at) / Fold change /veh RNFT2 (11725882_a_at) / RFU NR4A2 (11747474_a_at) / Fold change /veh NR4A2 (11747474_a_at) / RFU ABCC12 (11746883_a_at) / Fold change /veh ABCC12 (11746883_a_at) / RFU TMEM136 (11760407_x_at) / Fold change /veh TMEM136 (11760407_x_at) / RFU CLDN22 /// WWC2 (11732394_at) / Fold change /veh CLDN22 /// WWC2 (11732394_at) / RFU HLA-DPB1 (11760878_x_at) / Fold change /veh HLA-DPB1 (11760878_x_at) / RFU SPINT1 (11716480_a_at) / Fold change /veh SPINT1 (11716480_a_at) / RFU GAP43 (11754022_s_at) / Fold change /veh GAP43 (11754022_s_at) / RFU A4GNT (11735810_at) / Fold change /veh A4GNT (11735810_at) / RFU PRB3 (11715151_x_at) / Fold change /veh PRB3 (11715151_x_at) / RFU TUBB4B (11761932_at) / Fold change /veh TUBB4B (11761932_at) / RFU CAPN14 (11732068_a_at) / Fold change /veh CAPN14 (11732068_a_at) / RFU TMCC2 (11721928_a_at) / Fold change /veh TMCC2 (11721928_a_at) / RFU IRGQ (11745062_a_at) / Fold change /veh IRGQ (11745062_a_at) / RFU FAM174B (11720279_a_at) / Fold change /veh FAM174B (11720279_a_at) / RFU TMPRSS4 (11748680_a_at) / Fold change /veh TMPRSS4 (11748680_a_at) / RFU FAM212B (11763350_a_at) / Fold change /veh FAM212B (11763350_a_at) / RFU PLEKHG5 (11743358_a_at) / Fold change /veh PLEKHG5 (11743358_a_at) / RFU ZSCAN30 (11745921_a_at) / Fold change /veh ZSCAN30 (11745921_a_at) / RFU CMKLR1 (11741424_a_at) / Fold change /veh CMKLR1 (11741424_a_at) / RFU LOC101060620 /// MAPK8IP1 (11723275_at) / Fold change /veh LOC101060620 /// MAPK8IP1 (11723275_at) / RFU SPTSSB (11747773_x_at) / Fold change /veh SPTSSB (11747773_x_at) / RFU PRSS12 (11739890_at) / Fold change /veh PRSS12 (11739890_at) / RFU BIN1 (11741810_x_at) / Fold change /veh BIN1 (11741810_x_at) / RFU WNT11 (11732464_a_at) / Fold change /veh WNT11 (11732464_a_at) / RFU C10orf10 (11716521_a_at) / Fold change /veh C10orf10 (11716521_a_at) / RFU C5orf56 (11738089_at) / Fold change /veh C5orf56 (11738089_at) / RFU CYB561 (11721691_x_at) / Fold change /veh CYB561 (11721691_x_at) / RFU ANKRD19P (11752326_a_at) / Fold change /veh ANKRD19P (11752326_a_at) / RFU OR2T12 /// OR2T33 /// OR2T8 (11738714_s_at) / Fold change /veh OR2T12 /// OR2T33 /// OR2T8 (11738714_s_at) / RFU VCAN (11748164_a_at) / Fold change /veh VCAN (11748164_a_at) / RFU JSRP1 (11732532_at) / Fold change /veh JSRP1 (11732532_at) / RFU KRTAP10-11 (11738290_x_at) / Fold change /veh KRTAP10-11 (11738290_x_at) / RFU MYO3A (11730013_a_at) / Fold change /veh MYO3A (11730013_a_at) / RFU EBF3 (11725865_a_at) / Fold change /veh EBF3 (11725865_a_at) / RFU CAMK2N1 (11719241_x_at) / Fold change /veh CAMK2N1 (11719241_x_at) / RFU C5orf56 (11738088_a_at) / Fold change /veh C5orf56 (11738088_a_at) / RFU OLFML3 (11715873_a_at) / Fold change /veh OLFML3 (11715873_a_at) / RFU LOC100653217 /// NTM (11731650_a_at) / Fold change /veh LOC100653217 /// NTM (11731650_a_at) / RFU MAPK11 (11762145_a_at) / Fold change /veh MAPK11 (11762145_a_at) / RFU FIZ1 (11724087_x_at) / Fold change /veh FIZ1 (11724087_x_at) / RFU OASL (11726364_x_at) / Fold change /veh OASL (11726364_x_at) / RFU SOX15 (11748057_x_at) / Fold change /veh SOX15 (11748057_x_at) / RFU CD79A (11719716_a_at) / Fold change /veh CD79A (11719716_a_at) / RFU HIST1H1D (11736915_at) / Fold change /veh HIST1H1D (11736915_at) / RFU CASKIN2 (11723855_a_at) / Fold change /veh CASKIN2 (11723855_a_at) / RFU LOC730098 (11760151_x_at) / Fold change /veh LOC730098 (11760151_x_at) / RFU OR4N2 (11742367_at) / Fold change /veh OR4N2 (11742367_at) / RFU PRRT2 (11749266_a_at) / Fold change /veh PRRT2 (11749266_a_at) / RFU SNX32 (11753110_a_at) / Fold change /veh SNX32 (11753110_a_at) / RFU CDHR5 (11726645_a_at) / Fold change /veh CDHR5 (11726645_a_at) / RFU RCAN1 (11760418_a_at) / Fold change /veh RCAN1 (11760418_a_at) / RFU FAM167A (11723789_a_at) / Fold change /veh FAM167A (11723789_a_at) / RFU FAM26E (11764081_at) / Fold change /veh FAM26E (11764081_at) / RFU ISYNA1 (11749810_s_at) / Fold change /veh ISYNA1 (11749810_s_at) / RFU ACY1 (11761880_at) / Fold change /veh ACY1 (11761880_at) / RFU 11764098_at / Fold change /veh 11764098_at / RFU SAMD14 (11745864_x_at) / Fold change /veh SAMD14 (11745864_x_at) / RFU NPB (11741838_a_at) / Fold change /veh NPB (11741838_a_at) / RFU TMPRSS6 (11731388_a_at) / Fold change /veh TMPRSS6 (11731388_a_at) / RFU KRTAP10-2 (11738614_at) / Fold change /veh KRTAP10-2 (11738614_at) / RFU ARHGAP8 /// PRR5-ARHGAP8 (11727945_x_at) / Fold change /veh ARHGAP8 /// PRR5-ARHGAP8 (11727945_x_at) / RFU KRTAP5-7 /// NADSYN1 (11734609_at) / Fold change /veh KRTAP5-7 /// NADSYN1 (11734609_at) / RFU RASL12 (11751679_a_at) / Fold change /veh RASL12 (11751679_a_at) / RFU CDKN2B (11736163_a_at) / Fold change /veh CDKN2B (11736163_a_at) / RFU PRF1 (11729649_at) / Fold change /veh PRF1 (11729649_at) / RFU, ZNF638 /// ZNF638-IT1 / Fold change vs veh, ZNF638 /// ZNF638-IT1 / RFU, PANK3 / Fold change vs veh, PANK3 / RFU, SH3YL1 / Fold change vs veh, SH3YL1 / RFU, ZEB2 / Fold change vs veh, ZEB2 / RFU, NRIP1 / Fold change vs veh, NRIP1 / RFU, PTTG1IP / Fold change vs veh, PTTG1IP / RFU, CAPN2 / Fold change vs veh, CAPN2 / RFU, MED14 / Fold change vs veh, MED14 / RFU, SNORA58 / Fold change vs veh, SNORA58 / RFU, C1orf63 / Fold change vs veh, C1orf63 / RFU, LRRFIP1 / Fold change vs veh, LRRFIP1 / RFU, NDUFAF7 / Fold change vs veh, NDUFAF7 / RFU, SLC12A2 / Fold change vs veh, SLC12A2 / RFU, IBTK / Fold change vs veh, IBTK / RFU, ESF1 / Fold change vs veh, ESF1 / Fold change vs veh, TMEM50B / RFU, TAOK1 / Fold change vs veh, TAOK1 / RFU, ACBD3 / Fold change vs veh, ACBD3 / RFU, TMA16 / Fold change vs veh, TMA16 / RFU, RWDD3 / Fold change vs veh, RWDD3 / RFU, BCAT1 / Fold change vs veh, BCAT1 / RFU, EDEM3 / Fold change vs veh, EDEM3 / RFU, TMEM33 / Fold change vs veh, TMEM33 / RFU, WDR75 / Fold change vs veh, WDR75 / RFU, AHCTF1 / Fold change vs veh, AHCTF1 / RFU, TFRC / Fold change vs veh, TFRC / RFU, ZDHHC17 / Fold change vs veh, ZDHHC17 / RFU, NOM1 / Fold change vs veh, NOM1 / RFU, ARL8B / Fold change vs veh, ARL8B / RFU, ZBTB11 / Fold change vs veh, ZBTB11 / RFU, TAMM41 / Fold change vs veh, TAMM41 / RFU, KIAA1704 /// LOC100996395 / Fold change vs veh, KIAA1704 /// LOC100996395 / RFU, ING1 / Fold change vs veh, ING1 / RFU, TRMT61B / Fold change vs veh, TRMT61B / RFU, FUBP3 / Fold change vs veh, FUBP3 / RFU, TP53 / Fold change vs veh, TP53 / RFU, TNKS2 / Fold change vs veh, TNKS2 / RFU, ZFP14 / Fold change vs veh, ZFP14 / RFU, ACTR2 / Fold change vs veh, ACTR2 / RFU, PPP3R1 / Fold change vs veh, PPP3R1 / RFU, PIK3R1 / Fold change vs veh, PIK3R1 / RFU, HNRNPA1 / Fold change vs veh, HNRNPA1 / RFU, RNF170 / Fold change vs veh, RNF170 / RFU, ZNF28 / Fold change vs veh, ZNF28 / RFU, RNGTT / Fold change vs veh, RNGTT / RFU, OGT / Fold change vs veh, OGT / RFU, BRD1 / Fold change vs veh, BRD1 / RFU, MARS / Fold change vs veh, MARS / RFU, ZNF655 / Fold change vs veh, ZNF655 / RFU, FAHD1 / Fold change vs veh, FAHD1 / RFU, BDP1 / Fold change vs veh, BDP1 / RFU, LRRCC1 / Fold change vs veh, LRRCC1 / RFU, ARID1A / Fold change vs veh, ARID1A / RFU, ZNF146 / Fold change vs veh, ZNF146 / RFU, ZNF330 / Fold change vs veh, ZNF330 / RFU, GPN3 / Fold change vs veh, GPN3 / RFU, C9orf123 / Fold change vs veh, C9orf123 / RFU, N4BP2L2 / Fold change vs veh, N4BP2L2 / RFU, ARFIP1 / Fold change vs veh, ARFIP1 / RFU, FAM179B / Fold change vs veh, FAM179B / RFU, BCL10 / Fold change vs veh, BCL10 / RFU, UHRF1BP1L / Fold change vs veh, UHRF1BP1L / RFU, BET1 / Fold change vs veh, BET1 / RFU, CNOT2 / Fold change vs veh, CNOT2 / RFU, ZNF268 / Fold change vs veh, ZNF268 / Fold change vs veh, ZNF507 / RFU, DGCR2 / Fold change vs veh, DGCR2 / RFU, WDSUB1 / Fold change vs veh, WDSUB1 / Fold change vs veh, HSP90B1 /// MIR3652 / RFU, ADSS / Fold change vs veh, ADSS / RFU, GK / Fold change vs veh, GK / RFU, ZNF148 / Fold change vs veh, ZNF148 / RFU, TAF9 / Fold change vs veh, TAF9 / RFU, SLC1A5 / Fold change vs veh, SLC1A5 / RFU, SLMO2 / Fold change vs veh, SLMO2 / RFU, ABCC4 / Fold change vs veh, ABCC4 / RFU, LOC101060439 /// RAP1B / Fold change vs veh, LOC101060439 /// RAP1B / RFU, RFX7 / Fold change vs veh, RFX7 / RFU, GTPBP10 / Fold change vs veh, GTPBP10 / RFU, CNEP1R1 / Fold change vs veh, CNEP1R1 / RFU, BIVM-ERCC5 /// ERCC5 / Fold change vs veh, BIVM-ERCC5 /// ERCC5 / RFU, ILF3 / Fold change vs veh, ILF3 / RFU 11762660_at / Fold change /veh 11762660_at / RFU VCAN (11757783_s_at) / Fold change /veh VCAN (11757783_s_at) / RFU DDX43 (11728927_at) / Fold change /veh DDX43 (11728927_at) / RFU KRT8 (11758188_x_at) / Fold change /veh KRT8 (11758188_x_at) / RFU NKD1 (11759106_at) / Fold change /veh NKD1 (11759106_at) / RFU SRD5A1 (11742802_a_at) / Fold change /veh SRD5A1 (11742802_a_at) / RFU TPSAB1 /// TPSB2 (11721975_s_at) / Fold change /veh TPSAB1 /// TPSB2 (11721975_s_at) / RFU GSTM3 (11746129_a_at) / Fold change /veh GSTM3 (11746129_a_at) / RFU IL23R (11737362_x_at) / Fold change /veh IL23R (11737362_x_at) / RFU TMEM51 (11727254_a_at) / Fold change /veh TMEM51 (11727254_a_at) / RFU PIWIL2 (11732686_x_at) / Fold change /veh PIWIL2 (11732686_x_at) / RFU ORM1 (11744905_x_at) / Fold change /veh ORM1 (11744905_x_at) / RFU CCDC152 (11743942_at) / Fold change /veh CCDC152 (11743942_at) / RFU ECM1 (11717891_a_at) / Fold change /veh ECM1 (11717891_a_at) / RFU IL23R (11748794_a_at) / Fold change /veh IL23R (11748794_a_at) / RFU TNFAIP8L3 (11732012_x_at) / Fold change /veh TNFAIP8L3 (11732012_x_at) / RFU MBOAT4 (11741988_at) / Fold change /veh MBOAT4 (11741988_at) / RFU 11764193_at / Fold change /veh 11764193_at / RFU TMEM53 (11763286_at) / Fold change /veh TMEM53 (11763286_at) / RFU MAGEB2 (11727129_at) / Fold change /veh MAGEB2 (11727129_at) / RFU TMEM200A (11744735_a_at) / Fold change /veh TMEM200A (11744735_a_at) / RFU CCDC152 (11751479_a_at) / Fold change /veh CCDC152 (11751479_a_at) / RFU FAM211A (11726209_a_at) / Fold change /veh FAM211A (11726209_a_at) / RFU RGS16 (11746705_a_at) / Fold change /veh RGS16 (11746705_a_at) / RFU VCAN (11755009_s_at) / Fold change /veh VCAN (11755009_s_at) / RFU RHOB (11743442_s_at) / Fold change /veh RHOB (11743442_s_at) / RFU RGS16 (11720943_a_at) / Fold change /veh RGS16 (11720943_a_at) / RFU RGS16 (11720944_at) / Fold change /veh RGS16 (11720944_at) / RFU, VPS4B / Fold change vs veh, VPS4B / RFU, CREB1 / Fold change vs veh, CREB1 / RFU, DNAJC13 / Fold change vs veh, DNAJC13 / RFU, GNAQ / Fold change vs veh, GNAQ / RFU, CDK5R1 / Fold change vs veh, CDK5R1 / RFU, ZRANB3 / Fold change vs veh, ZRANB3 / RFU, CUL4A / Fold change vs veh, CUL4A / RFU, CCNY / Fold change vs veh, CCNY / RFU, UFL1 / Fold change vs veh, UFL1 / RFU, COG3 / Fold change vs veh, COG3 / RFU, DIAPH2 / Fold change vs veh, DIAPH2 / RFU, SKA2 / Fold change vs veh, SKA2 / RFU, AFF3 / Fold change vs veh, AFF3 / RFU, LMF1 / Fold change vs veh, LMF1 / RFU, IPO11 / Fold change vs veh, IPO11 / RFU, DFFB / Fold change vs veh, DFFB / RFU, FOXP1 / Fold change vs veh, FOXP1 / RFU, CARD8 / Fold change vs veh, CARD8 / RFU, STRN3 / Fold change vs veh, STRN3 / RFU, ADK / Fold change vs veh, ADK / RFU, RASSF2 / Fold change vs veh, RASSF2 / RFU, WIPF1 / Fold change vs veh, WIPF1 / RFU, LARP1B / Fold change vs veh, LARP1B / RFU, RASA1 / Fold change vs veh, RASA1 / RFU, RB1 / Fold change vs veh, RB1 / RFU, PPFIA1 / Fold change vs veh, PPFIA1 / RFU, MAT2A / Fold change vs veh, MAT2A / RFU, CCT5 / Fold change vs veh, CCT5 / RFU, WDR92 / Fold change vs veh, WDR92 / RFU, CUX1 / Fold change vs veh, CUX1 / RFU, TTC7A / Fold change vs veh, TTC7A / RFU, TMEM135 / Fold change vs veh, TMEM135 / RFU, DEPTOR / Fold change vs veh, DEPTOR / RFU, CPM / Fold change vs veh, CPM / RFU, DNAJB6 / Fold change vs veh, DNAJB6 / RFU, CACNA2D3 / Fold change vs veh, CACNA2D3 / RFU, DTX4 / Fold change vs veh, DTX4 / RFU, TFCP2 / Fold change vs veh, TFCP2 / RFU, GMCL1 /// GMCL1P1 / Fold change vs veh, GMCL1 /// GMCL1P1 / RFU, AEBP2 / Fold change vs veh, AEBP2 / RFU, SNHG1 /// SNORD22 /// SNORD25 /// SNORD26 /// SNORD27 /// SNORD28 /// SNORD29 /// SNORD31 / Fold change vs veh, SNHG1 /// SNORD22 /// SNORD25 /// SNORD26 /// SNORD27 /// SNORD28 /// SNORD29 /// SNORD31 / Fold change (Aza/veh), C12orf56 (ProbeSet 11735607_a_at) / Fold change (ACY-1035/veh), C12orf56 (ProbeSet 11735607_a_at) / Fold change (Aza/veh), FGFR1OP (ProbeSet 11751329_s_at) / Fold change (ACY-1035/veh), FGFR1OP (ProbeSet 11751329_s_at) / Fold change (Aza/veh), VPS36 (ProbeSet 11739960_a_at) / Fold change (ACY-1035/veh), VPS36 (ProbeSet 11739960_a_at) / RFU SYPL1 (11715823_x_at) / Fold change /veh SYPL1 (11715823_x_at) / RFU IGFBP7 (11715501_s_at) / Fold change /veh IGFBP7 (11715501_s_at) / RFU REEP3 (11722064_at) / Fold change /veh REEP3 (11722064_at) / RFU IGLL1 (11728026_x_at) / Fold change /veh IGLL1 (11728026_x_at): dose or concentration left out as unconfirmed. To be noted: MV-4-11 cells, 48 hours.

As for `Nc1ccc(-c2cccs2)cc1NC(=O)c1ccc2c(c1)cc(C1CC1)n2CCN1CCOCC1` [ACY-1035], the “RFU IGLL1 (11728026_x_at)” value was 5.54 RFU.
